In PMC8115619, “Generation of a chemical genetic model for JAK3” (Scientific Reports, 2021):

Experiments:
[1] = test system: IL-2 induced STAT5 phosphorylation in spleenocytes; assay: IL-2 induced STAT5 phosphorylation in spleenocytes; format: cell-based, mouse; details: wild type mice, inhibitor 1 h, 10 ng/ml IL-2
Description: (A) Single cell suspensions were prepared from the spleens of wild type mice. […] Cells were then stimulated with 10 ng/ml IL-4 for 30 min and the levels of phosphorylated STAT6 determined by immunoblotting. (B) As (A) except cells were stimulated with 10 ng/ml IL-2 and the levels of phosphorylated STAT5 determined. (C) CD8 T cells were expanded from the lymph nodes of wild type and JAK3 Cys905Ser knockin mice. Cells were rested in the absence of IL-2 for 60 min then incubated with the indicated concentrations of PF-06651600 for a further 30 min before stimulation with 10 ng/ml of IL-2 for 30 min. The levels of phosphorylated STAT5 and total ERK1/2 were then determined.
(§1) Cells were lysed directly into SDS sample buffer and aliquots run on 10% polyacrylamide gels using standard methods. Proteins were transferred onto nitrocellulose membranes, and specific proteins were detected by immunoblotting. […] Bands were detected using Clarity ECL reagents from BioRad and imaged on a Licor Odyssey Fc system. Quantification was carried out using Licor Image Studio software. After correction for the ERK1/2 levels to account for loading differences, percentage inhibition was calculated relative to the IL-4 stimulated condition. IC50 values were calculated using the same methods as for the in vitro IC50 values.

[2] = test system: IFNβ induced STAT1 phosphorylation in BMDMs; assay: IFNβ induced STAT1 phosphorylation in macrophages; format: cell-based, mouse; details: wild type BMDMs, 10 μM inhibitor 2 h, 10 ng/ml IFNβ
Description: (A) BMDMs were isolated from wild type mice. Cells were incubated with the indicated inhibitors in μM for 2 h before stimulation with 10 ng/ml IL-4 for 30 min. The levels of phosphorylated STAT6 were then determined by immunoblotting. (B) As (A) except cells were stimulated 10 ng/ml GM-CSF and the levels of phosphorylated STAT5 determined. (C) As (A) except cells were stimulated 10 ng/ml IL-10 and the levels of phosphorylated STAT3 determined. (D) As (A) except cells were stimulated 10 ng/ml IFNβ and the levels of phosphorylated STAT1 determined. For A–D, levels of ERK1/2 were determined as a loading control.
Bone marrow derived macrophages (BMDMs) were cultured as described. Briefly, bone marrow was flushed in PBS from the femurs and tibias of mice. […]
as §1

MARK4 = MARK4 (Homo sapiens, UniProt Q96L34); assay: Selectivity screen MARK4; format: biochemical; details: 1 µM inhibitor, mean
Sequence of MARK4 (Q96L34 whole entry): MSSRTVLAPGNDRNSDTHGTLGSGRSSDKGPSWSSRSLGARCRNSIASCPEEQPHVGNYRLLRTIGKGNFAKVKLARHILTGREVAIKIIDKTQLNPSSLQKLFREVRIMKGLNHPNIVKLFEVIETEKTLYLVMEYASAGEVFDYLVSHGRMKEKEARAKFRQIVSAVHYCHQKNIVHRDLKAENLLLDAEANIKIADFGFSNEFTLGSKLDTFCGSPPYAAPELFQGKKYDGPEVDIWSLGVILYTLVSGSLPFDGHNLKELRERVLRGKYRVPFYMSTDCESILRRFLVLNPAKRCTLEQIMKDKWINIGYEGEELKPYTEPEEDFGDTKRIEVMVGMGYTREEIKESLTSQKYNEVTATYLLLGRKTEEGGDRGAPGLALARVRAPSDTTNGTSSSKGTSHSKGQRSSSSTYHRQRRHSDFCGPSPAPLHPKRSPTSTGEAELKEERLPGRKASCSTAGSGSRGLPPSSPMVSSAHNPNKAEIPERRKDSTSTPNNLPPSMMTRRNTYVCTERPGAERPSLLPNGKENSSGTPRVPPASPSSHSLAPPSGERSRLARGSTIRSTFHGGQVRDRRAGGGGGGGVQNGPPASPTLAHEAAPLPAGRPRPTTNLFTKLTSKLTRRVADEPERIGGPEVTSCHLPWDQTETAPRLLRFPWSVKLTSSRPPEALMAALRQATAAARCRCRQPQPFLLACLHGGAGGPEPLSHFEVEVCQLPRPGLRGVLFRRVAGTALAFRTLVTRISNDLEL
Description: (§2) For the in vitro kinase assay, JAK3 (5–20 mU diluted in 50 mM Tris pH 7.5, 0.1 mM EGTA, 0.05% β-mercaptoethanol, 1 mg/ml BSA) was assayed against PDKtide ([…]) in a final volume of 25.5 µl containing 50 mM Tris pH 7.5, 0.1 mM EGTA, 0.05% β-mercaptoethanol, 100 µM substrate peptide, 10 mM magnesium acetate and 0.02 mM [33P-γ-ATP] (50–1000 cpm/pmole) and incubated for 30 min at room temperature. Assays were started by the addition of the ATP and stopped by addition of 5 µl of 0.5 M (3%) orthophosphoric acid and then harvested onto P81 Unifilter plates with a wash buffer of 50 mM orthophosphoric acid. To determine the Km for ATP, assays were run using 1, 5, 10, 20, 50, 100, 200, 400, 500 μM ATP and Km derived by non-linear regression fitting to the Michaelis–Menten equation v = Vmax[S]/(Km + [S]). IC50 values for inhibitors via non-linear regression using a parameter model: Y = Bottom + (Top–Bottom)/(1 + (IC50/X)^HillSlope). Non-linear regression was carried out in Prism (version 8). In vitro selectivity screen was carried out as described previously.

IRAK4 = IRAK4 (Homo sapiens, UniProt Q9NWZ3); assay: Selectivity screen IRAK4; format: biochemical; details: 1 µM inhibitor, mean
Description: as §2

VEG-FR = VEG-FR (Homo sapiens, UniProt P17948); assay: Selectivity screen VEG-FR; format: biochemical; details: 1 µM inhibitor, mean
Description: as §2

RIPK2 = RIPK2 (Homo sapiens, UniProt O43353); assay: Selectivity screen RIPK2; format: biochemical; details: 1 µM inhibitor, mean
Sequence of RIPK2 (O43353 whole entry): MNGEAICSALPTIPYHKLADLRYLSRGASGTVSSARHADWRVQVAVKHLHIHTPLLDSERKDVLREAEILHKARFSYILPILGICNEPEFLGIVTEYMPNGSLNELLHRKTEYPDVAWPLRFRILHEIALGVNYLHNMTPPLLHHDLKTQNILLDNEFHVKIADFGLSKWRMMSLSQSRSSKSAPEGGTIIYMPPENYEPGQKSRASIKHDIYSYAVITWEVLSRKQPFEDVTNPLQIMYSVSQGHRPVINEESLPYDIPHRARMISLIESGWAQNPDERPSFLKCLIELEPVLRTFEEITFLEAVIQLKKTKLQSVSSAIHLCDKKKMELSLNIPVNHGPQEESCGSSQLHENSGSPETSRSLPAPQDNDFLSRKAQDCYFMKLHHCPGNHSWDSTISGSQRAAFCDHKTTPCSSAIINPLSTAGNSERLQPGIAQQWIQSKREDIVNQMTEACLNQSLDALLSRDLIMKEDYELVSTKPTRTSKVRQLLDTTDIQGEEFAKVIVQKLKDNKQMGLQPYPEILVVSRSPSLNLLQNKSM
Description: as §2

BRSK2 = BRSK2 (Homo sapiens, UniProt Q8IWQ3); assay: Selectivity screen BRSK2; format: biochemical; details: 1 µM inhibitor, mean
Description: as §2

EPH-B3 = EPH-B3 (Homo sapiens, UniProt P54753); assay: Selectivity screen EPH-B3; format: biochemical; details: 1 µM inhibitor, mean
Description: as §2

MST2 = MST2 (Homo sapiens, UniProt Q13188); assay: Selectivity screen MST2; format: biochemical; details: 1 µM inhibitor, mean
Description: as §2

PIM1 = PIM1 (Homo sapiens, UniProt P11309); assay: Selectivity screen PIM1; format: biochemical; details: 1 µM inhibitor, mean
Sequence of PIM1 (P11309 whole entry): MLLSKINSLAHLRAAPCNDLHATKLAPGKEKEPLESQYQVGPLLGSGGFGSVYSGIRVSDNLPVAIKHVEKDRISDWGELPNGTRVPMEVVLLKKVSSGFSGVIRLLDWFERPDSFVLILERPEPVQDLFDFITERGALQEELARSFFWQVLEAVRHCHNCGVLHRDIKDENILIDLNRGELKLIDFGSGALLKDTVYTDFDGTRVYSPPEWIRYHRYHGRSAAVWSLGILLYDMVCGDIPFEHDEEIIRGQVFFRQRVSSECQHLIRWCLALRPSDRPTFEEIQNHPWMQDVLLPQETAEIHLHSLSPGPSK
Description: as §2

TESK1 = TESK1 (Homo sapiens, UniProt Q15569); assay: Selectivity screen TESK1; format: biochemical; details: 1 µM inhibitor, mean
Description: as §2

p38b MAPK = p38b MAPK (Homo sapiens, UniProt Q15759); assay: Selectivity screen p38b MAPK; format: biochemical; details: 1 µM inhibitor, mean
Description: as §2

TSSK1 = TSSK1 (Homo sapiens, UniProt Q9BXA7); assay: Selectivity screen TSSK1; format: biochemical; details: 1 µM inhibitor, mean
Sequence of TSSK1 (Q9BXA7 whole entry): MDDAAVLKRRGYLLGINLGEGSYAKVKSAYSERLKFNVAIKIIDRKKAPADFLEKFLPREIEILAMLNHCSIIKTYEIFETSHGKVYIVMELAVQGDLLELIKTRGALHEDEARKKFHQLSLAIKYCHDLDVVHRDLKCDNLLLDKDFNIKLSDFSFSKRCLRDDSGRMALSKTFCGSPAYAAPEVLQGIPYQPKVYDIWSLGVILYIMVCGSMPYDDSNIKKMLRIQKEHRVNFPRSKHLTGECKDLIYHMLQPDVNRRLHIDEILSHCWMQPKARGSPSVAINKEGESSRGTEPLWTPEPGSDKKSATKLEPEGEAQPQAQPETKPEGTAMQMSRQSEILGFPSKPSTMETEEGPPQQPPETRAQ
Description: as §2

ROCK 2 = ROCK 2 (Homo sapiens, UniProt O75116); assay: Selectivity screen ROCK 2; format: biochemical; details: 1 µM inhibitor, mean
Sequence of ROCK 2 (O75116 whole entry): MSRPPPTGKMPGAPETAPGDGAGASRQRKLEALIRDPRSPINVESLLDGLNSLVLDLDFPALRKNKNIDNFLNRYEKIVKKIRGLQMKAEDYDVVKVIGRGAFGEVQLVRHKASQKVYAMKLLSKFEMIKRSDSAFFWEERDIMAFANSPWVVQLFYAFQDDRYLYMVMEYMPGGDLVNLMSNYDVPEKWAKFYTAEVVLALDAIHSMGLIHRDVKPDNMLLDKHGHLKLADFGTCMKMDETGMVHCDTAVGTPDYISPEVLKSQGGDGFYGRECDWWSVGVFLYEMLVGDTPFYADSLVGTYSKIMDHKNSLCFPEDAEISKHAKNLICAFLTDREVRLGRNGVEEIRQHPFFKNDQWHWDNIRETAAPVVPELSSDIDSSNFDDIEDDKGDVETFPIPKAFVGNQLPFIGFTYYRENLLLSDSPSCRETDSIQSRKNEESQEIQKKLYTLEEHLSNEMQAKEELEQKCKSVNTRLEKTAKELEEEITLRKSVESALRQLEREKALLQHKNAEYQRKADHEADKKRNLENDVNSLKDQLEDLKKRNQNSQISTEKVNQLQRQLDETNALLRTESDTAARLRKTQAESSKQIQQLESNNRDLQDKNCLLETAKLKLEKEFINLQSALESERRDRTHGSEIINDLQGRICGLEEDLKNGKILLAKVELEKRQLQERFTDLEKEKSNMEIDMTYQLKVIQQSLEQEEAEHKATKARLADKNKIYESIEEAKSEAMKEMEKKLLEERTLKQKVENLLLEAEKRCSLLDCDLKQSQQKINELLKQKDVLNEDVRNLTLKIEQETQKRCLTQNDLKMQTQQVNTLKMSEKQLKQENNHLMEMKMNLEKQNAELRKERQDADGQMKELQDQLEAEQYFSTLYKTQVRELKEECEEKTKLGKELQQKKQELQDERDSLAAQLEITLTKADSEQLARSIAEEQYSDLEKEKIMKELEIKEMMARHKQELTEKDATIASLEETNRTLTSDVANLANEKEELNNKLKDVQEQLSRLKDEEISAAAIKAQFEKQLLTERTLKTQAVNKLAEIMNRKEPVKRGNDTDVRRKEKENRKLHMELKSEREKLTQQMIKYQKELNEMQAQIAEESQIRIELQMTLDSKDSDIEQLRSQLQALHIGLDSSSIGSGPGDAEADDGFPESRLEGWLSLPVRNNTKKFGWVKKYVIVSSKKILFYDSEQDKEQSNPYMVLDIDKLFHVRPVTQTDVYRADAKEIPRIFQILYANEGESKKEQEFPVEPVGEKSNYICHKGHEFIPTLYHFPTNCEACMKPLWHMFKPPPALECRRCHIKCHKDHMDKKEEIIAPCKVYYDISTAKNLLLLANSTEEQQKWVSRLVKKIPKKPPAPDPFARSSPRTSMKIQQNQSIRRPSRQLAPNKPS
Description: as §2

EPH-A2 = EPH-A2 (Homo sapiens, UniProt P29317); assay: Selectivity screen EPH-A2; format: biochemical; details: 1 µM inhibitor, mean
Description: as §2

JNK1 = JNK1 (Homo sapiens, UniProt P45983); assay: Selectivity screen JNK1; format: biochemical; details: 1 µM inhibitor, mean
Sequence of JNK1 (P45983 whole entry): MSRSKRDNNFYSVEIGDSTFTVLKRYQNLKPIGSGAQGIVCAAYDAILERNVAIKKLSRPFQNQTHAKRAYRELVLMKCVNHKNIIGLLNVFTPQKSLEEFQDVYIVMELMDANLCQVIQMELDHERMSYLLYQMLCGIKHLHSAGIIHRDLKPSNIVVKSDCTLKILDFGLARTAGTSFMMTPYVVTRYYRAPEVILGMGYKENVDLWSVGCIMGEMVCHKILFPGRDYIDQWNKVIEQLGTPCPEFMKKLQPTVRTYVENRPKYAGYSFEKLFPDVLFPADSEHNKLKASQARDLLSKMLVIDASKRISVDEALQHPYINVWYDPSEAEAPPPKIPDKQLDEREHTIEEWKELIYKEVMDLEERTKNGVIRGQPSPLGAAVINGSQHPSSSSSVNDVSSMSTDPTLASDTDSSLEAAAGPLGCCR
Description: as §2

MAP4K5 = MAP4K5 (Homo sapiens, UniProt Q9Y4K4); assay: Selectivity screen MAP4K5; format: biochemical; details: 1 µM inhibitor, mean
Sequence of MAP4K5 (Q9Y4K4 whole entry): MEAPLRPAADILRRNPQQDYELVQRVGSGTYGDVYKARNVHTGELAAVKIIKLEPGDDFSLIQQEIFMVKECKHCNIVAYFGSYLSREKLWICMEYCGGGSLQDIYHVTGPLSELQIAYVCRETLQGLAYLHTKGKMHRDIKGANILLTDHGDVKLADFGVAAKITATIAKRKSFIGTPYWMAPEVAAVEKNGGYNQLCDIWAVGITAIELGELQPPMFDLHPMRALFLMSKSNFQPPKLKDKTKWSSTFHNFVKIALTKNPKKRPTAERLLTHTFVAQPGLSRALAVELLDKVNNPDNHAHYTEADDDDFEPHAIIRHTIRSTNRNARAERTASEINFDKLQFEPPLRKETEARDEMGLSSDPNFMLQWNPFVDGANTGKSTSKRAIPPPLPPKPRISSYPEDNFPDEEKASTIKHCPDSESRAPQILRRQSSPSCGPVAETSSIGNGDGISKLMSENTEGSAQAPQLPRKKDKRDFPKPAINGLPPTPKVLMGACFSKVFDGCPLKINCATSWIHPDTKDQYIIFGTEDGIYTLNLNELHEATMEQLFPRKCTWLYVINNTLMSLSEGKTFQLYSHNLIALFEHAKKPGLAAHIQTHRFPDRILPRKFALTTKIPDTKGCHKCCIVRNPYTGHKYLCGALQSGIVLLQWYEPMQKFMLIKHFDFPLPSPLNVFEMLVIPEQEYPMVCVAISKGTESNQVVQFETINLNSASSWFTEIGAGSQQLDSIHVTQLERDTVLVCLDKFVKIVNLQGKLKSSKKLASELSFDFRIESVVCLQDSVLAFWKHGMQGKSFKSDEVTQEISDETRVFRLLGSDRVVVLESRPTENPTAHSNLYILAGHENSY
Description: as §2

Aurora B = Aurora B (Homo sapiens, UniProt Q96GD4); assay: Selectivity screen Aurora B; format: biochemical; details: 1 µM inhibitor, mean
CK1δ = CK1δ (Homo sapiens, UniProt P48730); assay: Selectivity screen CK1δ; format: biochemical; details: 1 µM inhibitor, mean
Sequence of CK1δ (P48730 whole entry): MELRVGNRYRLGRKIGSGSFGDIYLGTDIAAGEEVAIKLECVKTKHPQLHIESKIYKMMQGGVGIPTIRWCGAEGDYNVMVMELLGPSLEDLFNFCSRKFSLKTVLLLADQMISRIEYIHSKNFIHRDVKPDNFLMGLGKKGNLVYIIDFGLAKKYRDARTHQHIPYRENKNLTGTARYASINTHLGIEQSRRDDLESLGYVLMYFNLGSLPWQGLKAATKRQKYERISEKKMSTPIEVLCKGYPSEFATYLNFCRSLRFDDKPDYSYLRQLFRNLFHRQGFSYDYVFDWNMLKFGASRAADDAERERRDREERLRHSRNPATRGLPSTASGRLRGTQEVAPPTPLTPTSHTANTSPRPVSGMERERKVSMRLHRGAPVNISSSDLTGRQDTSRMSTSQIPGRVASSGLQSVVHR
Description: as §2

C=CC(=O)N1C[C@H](Nc2ncnc3[nH]ccc23)CC[C@@H]1C [PF-06651600, 1-((2S,5R)-5-((7H-Pyrrolo[2,3-d]pyrimidin-4-yl)amino)-2-methylpiperidin-1-yl)prop-2-en-1-one, reference compound]
block of IL-2 induced STAT5 phosphorylation in spleenocytes [1]: able to block
inhibition of IFNβ induced STAT1 phosphorylation [2]: did not block

C=CC(=O)Nc1cccc(CNc2nc(Nc3ccc(N4CCN(C)CC4)cc3OC)ncc2Cl)c1 [TL6-144]
activity remaining in the presence of the inhibitor: MARK4 (MARK4): 76
activity remaining in the presence of the inhibitor: IRAK4 (IRAK4): 85
activity remaining in the presence of the inhibitor: VEG-FR (VEG-FR): 39
activity remaining in the presence of the inhibitor: RIPK2 (RIPK2): 92
activity remaining in the presence of the inhibitor: BRSK2 (BRSK2): 90
activity remaining in the presence of the inhibitor: EPH-B3 (EPH-B3): 77
activity remaining in the presence of the inhibitor: MST2 (MST2): 83
activity remaining in the presence of the inhibitor: PIM1 (PIM1): 95
activity remaining in the presence of the inhibitor: TESK1 (TESK1): 99
activity remaining in the presence of the inhibitor: p38b MAPK (p38b MAPK): 93
activity remaining in the presence of the inhibitor: TSSK1 (TSSK1): 34
activity remaining in the presence of the inhibitor: ROCK 2 (ROCK 2): 83
activity remaining in the presence of the inhibitor: EPH-A2 (EPH-A2): 72
activity remaining in the presence of the inhibitor: JNK1 (JNK1): 83
activity remaining in the presence of the inhibitor: MAP4K5 (MAP4K5): 83
activity remaining in the presence of the inhibitor: Aurora B (Aurora B): 81
activity remaining in the presence of the inhibitor: CK1δ (CK1δ): 83

C=CC(=O)Nc1cccc(CNc2nc(Nc3ccc(N4CCOCC4)cc3)ncc2Cl)c1 [TL8-52]
activity remaining in the presence of the inhibitor: MARK4 (MARK4): 28
activity remaining in the presence of the inhibitor: IRAK4 (IRAK4): 77
activity remaining in the presence of the inhibitor: VEG-FR (VEG-FR): 6
activity remaining in the presence of the inhibitor: RIPK2 (RIPK2): 71
activity remaining in the presence of the inhibitor: BRSK2 (BRSK2): 87
activity remaining in the presence of the inhibitor: EPH-B3 (EPH-B3): 73
activity remaining in the presence of the inhibitor: MST2 (MST2): 48
block of IL-2 induced STAT5 phosphorylation in spleenocytes [1]: able to block
activity remaining in the presence of the inhibitor: PIM1 (PIM1): 111
activity remaining in the presence of the inhibitor: TESK1 (TESK1): 91
activity remaining in the presence of the inhibitor: p38b MAPK (p38b MAPK): 96
inhibition of IFNβ induced STAT1 phosphorylation [2]: Some inhibition
activity remaining in the presence of the inhibitor: TSSK1 (TSSK1): 57
activity remaining in the presence of the inhibitor: ROCK 2 (ROCK 2): 93
activity remaining in the presence of the inhibitor: EPH-A2 (EPH-A2): 87
activity remaining in the presence of the inhibitor: JNK1 (JNK1): 104
activity remaining in the presence of the inhibitor: MAP4K5 (MAP4K5): 63
activity remaining in the presence of the inhibitor: Aurora B (Aurora B): 13
activity remaining in the presence of the inhibitor: CK1δ (CK1δ): 110
